Holding throughout (assay type): in vivo
Data set [1] relates to single housed hyper-aggressive male Swiss mice. Kind of data set: Isolation-induced aggression model, two mouse social interaction test. As to conditions: for increased time spent fighting in single housed mice: 10-minute test. The source says:
This model has been chosen as it is considered to have excellent predictive validity toward human aggression and face validity for modelling offensive impulsive aggression in human aggression and it leads specifically to alterations in aggressive behaviour without confounding changes in other behaviours.
Eighty male Swiss mice (ARC, Perth, Australia) aged 6-7 weeks upon arrival were used for objectives (1) and (3) in this study, 30 mice of the same age and strain were used for objective (2). Subjects were housed four per cage in a temperature-controlled colony room (22° C.±1° C.) under standard laboratory conditions (12-hour light/dark cycle; light phase 0700-1900 hours) upon arrival. Mice were housed in standard IVC cages. Mice had ad libitum access to food and water in their home cages. All experiments were performed during the light phase. All experimental procedures were approved by University of Sydney Animal Ethics Committee.
After allowing 1 week for acclimatisation, n=64 mice were rendered hyper-aggressive by moving them into single housing, whereas n=16 animals were housed in groups of four. During this time, all mice were weighed at least once per week. One week prior to the commencement of testing mice were given habituation injections with saline (0.9%, 10 mL/kg) to reduce the potential confounding stress and anxiety from injections during testing.
Testing commenced from 6 weeks post-isolation. All experiments were conducted in testing arenas constructed from acrylic, with matte blue internal walls and floor (400 mm×400 mm×400 mm). The lighting at the centre of the arenas during testing was <10 lux. Prior to each test, one mouse in each pair was marked on its back with a non-toxic green marker, this allowed the automated behavioural tracking software to distinguish between the two mice (see below). On test days, weight and condition matched pairs of unfamiliar mice were administered their drug treatment(s) as described below and were then placed into the testing arena together for a 10 min test session (Examples 2 and 4) or a 5 minute test session (Example 3).
Drugs were administered either via intraperitoneal (i.p.) injection (injection volume 10 ml/kg) or administered orally (as indicated). The testing arenas were cleaned between sessions with ethanol (80%) and F10 disinfectant to eliminate residual odours.
KNX100 2HCL (Wuxi Apptech, Hong Kong, China) was dissolved in saline (0.9%).
A 5 group between-subjects design was utilised. 15 min prior to testing, group-housed mice received vehicle treatment (VEHg) and single housed mice received one of four different doses of KNX100 (0 aka VEHs, 2.5, 5 or 10 mg/kg). The sample size in each group was as follows: group housed (n=12); singled housed administered KNX100 dose 0 (n=14), […] (n=16), […] (n=18), and 10 (n=16) mg/kg, for i.p. administration.
For oral dosing, mice were similarly grouped, and 20 mg/kg KNX100 in saline or vehicle (saline) were administered by oral gavage with n=10 mice per group.
A 4 group between-subjects design was utilised.
The behaviours of interest were: (1) time (in seconds) spent fighting; (2) time (in seconds) spent huddling (defined as the mice being in close physical contact with each other while stationary); (3) time (in seconds) spent grooming themselves; and (4) distance travelled (in mm) by each mouse during the experimental session.
Experimental sessions were recorded with an overhead camera using CaptureStar (Version 1.00, CleverSys, Virginia, USA). The behaviours detailed above were automatically quantified from the videos using the behavioural tracking software TopScan, SocialScan and AggressionScan (CleverSys, Virginia, USA). Data were analysed using SPSS (Version 24.0, IBM, USA). Data were analysed with a one-way ANOVA and planned contrasts. Significance was set at p≤0.05.
This study used the same model and testing procedure for the two-mouse social interaction test as described in Example 1, and using a phosphate salt form of KNX100.

Data set [2] concerns APP/PS1 mice. Kind of data set: Resident-Intruder (RI) test in Alzheimer's disease aggression mouse model. As to conditions: for number (frequency) of attacks on the intruder mouse vs vehicle-treated APP/PS1 mice: KNX100 phosphate salt 2.5, 5 or 10 mg/kg freebase equivalent IP 15 min prior, risperidone 0.05 mg/kg IP 30 min prior, 5-minute session. The source says:
Male APP/PS1 and WT mice (˜3 months of age) were used to assess the effect of KNX100 on aggression in a mouse model of Alzheimer's Disease.
APP/PS1 are double transgenic mice expressing a chimeric mouse/human amyloid precursor protein (APP) and presenilin (PS1).
Male C57BL/6J mice were purchased from Jackson Laboratory at 7-8 weeks of age and were used as the intruders in this study. The APP/PS1 mice and wild-type control mice were single-housed and C57BL/6J mice were group-housed (4 per cage) in a light-controlled environment (12/12 light/dark cycle) with access to food and water ad libitum. Tests were performed during the animal's light cycle.
The test compound, KNX100 was provided in its phosphate salt form. Doses of 2.5, 5, and 10 mg/kg freebase equivalent were dissolved in saline and injected IP, at a dose volume of 10 ml/kg, 15 minutes prior to the test.
Briefly, all mice were acclimated to red-light conditions for 60 minutes prior to testing. During the RI test, an unfamiliar intruder C57BL/6J mouse was placed directly into the home cage of the APP/PS1 resident mouse for 300 seconds. During the 5-minute session, the latency time to attack (attack was defined at a bite), and the total number (frequency) of attacks, were recorded manually by an experimenter blinded to the treatment groups. Immediately after testing, mice were separated, and the intruder mouse was placed back into his home cage. All mice that were wounded were treated according to IACUC guidelines.
One week after the pre-screen RI session, AD resident mice were administered vehicle, test compound, or risperidone. The RI test session was performed as described above following the appropriate pretreatment time.
Body weights were recorded at each time point as specified above. For aggression, the latency to attack and the total number of attacks were recorded.
Data were analyzed by analysis of variance (ANOVA) followed by post-hoc comparisons when appropriate. An effect was considered significant if p<0.05. Data are presented as the mean±standard error of the mean (SEM).

For data set [3], the system named is 6-OHDA lesion mice. In words: Social interaction test in neonatal 6-OHDA lesion mouse model of ADHD. As to conditions: KNX100 phosphate 1.845-7.38 mg/kg freebase equivalent i.p. or 3.75-15 mg/kg p.o. From the text: Increased aggression is commonly observed in patients with ADHD. This increased aggression is also observed in several animal models of ADHD. One such model is the neonatal 6-hydroxydopamine (6-OHDA) lesion mouse model.
Briefly, intracerebroventricular infusion of 6-OHDA into brains of mice around postnatal day 5 results in a biological ADHD phenotype (e.g. dopamine depletion) and a behavioural phenotype (e.g. hyperactivity, impaired attention, impulsivity, aggression, and learning and memory deficits) in the majority of mice from postweaning onwards.
Five primary experimental conditions of interest are investigated: • Sham lesion mice treated with vehicle • 6-OHDA lesion mice treated with vehicle • 6-OHDA lesion mice treated with 1.845 mg/kg freebase equivalent KNX100 phosphate i.p. or 3.75 mg/kg p.o. • 6-OHDA lesion mice treated with 3.69 mg/kg freebase equivalent KNX100 phosphate i.p. or 7.5 mg/kg p.o. • 6-OHDA lesion mice treated with 7.38 mg/kg freebase equivalent KNX100 phosphate i.p. or 15 mg/kg p.o.
During adolescence, mice undergo a social interaction test to test the effects of KNX100 on increased aggression the ADHD model mice (6-OHDA lesion mice) compared to the control mice (sham lesion mice). […] The behaviours of the control or ADHD model mouse are assessed and include the total time spent fighting, the total number of fights, and the latency to the first fight.

Where [4] appears, read: Example 4: 0.1 mg/kg risperidone (30 min prior) or 10 mg/kg KNX100 dihydrochloride salt (15 min prior), 10 min test.
The mark [5] stands for this setting: Example 4: 0.1 mg/kg risperidone or 10 mg/kg KNX100 dihydrochloride salt.
Where [6] appears, read: Example 4: 10 mg/kg KNX100 vs 0.1 mg/kg risperidone.
Where [7] appears, read: KNX100 dihydrochloride salt 20 mg/kg p.o. 30 min prior, 5 min test.
The mark [8] stands for this setting: KNX100 dihydrochloride salt 2.5, 5 or 10 mg/kg i.p., single housed mice, linear trend for dose.
Setting [9] is: acute KNX100 phosphate salt 15 mg/kg freebase equivalent p.o.
The mark [10] stands for this setting: subchronic KNX100 phosphate salt 15 mg/kg freebase equivalent p.o. once daily 7 days.

The structures appear in SMILES notation. “Also recorded” adds a separate entry of the source.

As for `Cc1nc2n(c(=O)c1CCN1CCC(c3noc4cc(F)ccc34)CC1)CCCC2` [risperidone, reference compound], the “time spent fighting vs vehicle treated single housed mice” value in data set [1] (setting [4]) was “spent less time fighting; also recorded: significantly inhibited fighting”. Moreover, in data set [1] (setting [5]), the “time spent fighting vs vehicle treated group housed mice” value was “spent less time fighting” and the “time spent huddling vs vehicle treated single housed mice” value is recorded as “spent significantly more time huddling; also recorded: increased huddling”. In addition, the “time spent grooming vs vehicle treated single housed mice” value in data set [1] (Example 4: 0.1 mg/kg risperidone, 0.1 mg/kg) is “spent significantly more time grooming; also recorded: significantly increased time spent grooming”. The “number (frequency) of attacks on the intruder mouse vs vehicle-treated APP/PS1 mice” value in data set [2] is “decreased the number of attacks”.
On to `Cn1ncc2c1Nc1ccccc1NC2` [KNX100], for which the “time spent fighting vs vehicle treated single housed mice” value in data set [1] (setting [4]) is on record as “spent less time fighting; also recorded: significantly inhibited fighting”. Besides, in data set [1] (setting [5]), the “distance travelled vs vehicle treated single housed mice” value is on record as “travelled significantly less distance; also recorded: significantly reduced distance travelled”, the “time spent fighting vs vehicle treated group housed mice” value was “spent less time fighting” and the “time spent huddling vs vehicle treated single housed mice” value was “spent significantly more time huddling; also recorded: increased huddling”. In data set [1] (Example 4: 0.1 mg/kg risperidone vs 10 mg/kg KNX100), the “distance travelled / locomotor activity, risperidone compared with KNX100” value is “significantly less suppression of locomotor activity”. Moreover, the “time spent grooming vs vehicle treated group housed mice” value in data set [1] (Example 4: 10 mg/kg KNX100 dihydrochloride salt) is “did not differ significantly from vehicle treated group housed mice in time spent grooming”. Further, in data set [1] (setting [6]), the “time spent fighting / inhibition of aggression, KNX100 compared with risperidone” value is “no significant difference in time spent fighting; also recorded: at least equivalent inhibition of aggression to risperidone”; the “time spent grooming, KNX100 compared with risperidone” value is “no significant different in time spent grooming”; the “time spent huddling, KNX100 compared with risperidone” value is given as “no significant difference in time spent huddling”. Also, in data set [1] (setting [7]), the “time spent fighting vs vehicle treated group housed mice” value is “did not differ significantly in time spent fighting compared to vehicle treated group housed mice; also recorded: did not differ significantly in time spent fighting relative to the group housed mice” and the “time spent fighting vs vehicle treated single housed mice” value was “spent significantly less time fighting than the single housed vehicle treated mice”. In addition, the “distance travelled relative to the group housed mice” value in data set [1] (KNX100 dihydrochloride salt 2.5, 5, 10 mg/kg i.p., vs vehicle treated group housed mice) is given as “none of the doses of KNX100 resulted in a significant difference in distance travelled”. For the same compound, the time spent fighting entry in data set [1] (KNX100 dihydrochloride salt 2.5, 5 or 10 mg/kg i.p. 15 min prior, single housed mice, linear trend for dose, 10 min test) was “dose dependently inhibited induced aggression; also recorded: dose dependently inhibited fighting”. Also, in data set [1] (setting [8]), the distance travelled entry is given as “dose dependently decreased distance travelled; also recorded: dose dependently inhibited”, the time spent huddling entry is listed as “dose dependently increased time spent in this form of close physical contact; also recorded: dose dependently increased huddling” and the time spent self-grooming entry was “dose dependently increased time spent self-grooming”. Also, the “efficacy of subchronic compared with acute KNX100 (duration spent fighting, number of fights, latency to first fight)” value in data set [1] (KNX100 phosphate salt 15 mg/kg freebase equivalent p.o.) is given as “no significant difference in efficacy; also recorded: maintains full efficacy at reducing aggressive behaviour after repeated dosing; also recorded: equally efficacious”. For the same compound, in data set [1] (setting [9]), the “greater number of fights in single housed mice” value was “prevented” and the “reduced latency to first fight in single housed mice” value is given as “prevented”. Moreover, the “increased time spent fighting in single housed mice” value in data set [1] (acute KNX100 phosphate salt 15 mg/kg freebase equivalent p.o. on day 7, 30 min prior) is on record as “prevented the increased time spent fighting”. Moreover, in data set [1] (setting [10]), the “greater number of fights in single housed mice” value is “prevented”, the “reduced latency to first fight in single housed mice” value is given as “prevented” and the “increased time spent fighting in single housed mice” value is “prevented the increased time spent fighting”. For the same compound, in data set [2] (KNX100 phosphate salt 10 mg/kg freebase equivalent IP), the “latency to attack the intruder mouse vs vehicle-treated APP/PS1 mice” value was “showed a trend to increasing the latency to attack; also recorded: tended to increase the latency to attack intruders”. In addition, the “number (frequency) of attacks on the intruder mouse vs vehicle-treated APP/PS1 mice” value in data set [2] is reported as “decreased the number of attacks; also recorded: robustly reduced the number of aggressive attacks”. In data set [3], the “total time spent fighting, total number of fights, latency to the first fight” value is “is shown to inhibit fighting incidents, duration of fighting, and latency to first attack”.
